What was measured:
Assay type in all cases: biochemical
Conditions in all cases: ADP-Glo SIK kinase assay
[1] = biological target: T1, SIK3 (Homo sapiens, UniProt Q9Y2K2); assay: ADP-Glo kinase assay, SIK3
T1 construct: purchased SignalChem S12-11G-100
In short: (§1)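 Wells with 1% DMSO or 10 μM staurosporine (final) define the control window. The kinase reaction with substrate and ATP runs 120 min at RT, followed by ADP-Glo detection: ATP depletion (40 min) and ADP-derived luminescence (30 min).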

[2] = biological target: T2, SIK2 (Homo sapiens, UniProt Q9H0K1); assay: ADP-Glo kinase assay, SIK2
T2 construct: purchased ThermoFisher Scientific PV4792
In short: as §1

[3] = biological target: T3, SIK1 (Homo sapiens, UniProt P57059); assay: ADP-Glo kinase assay, SIK1
T3 construct: purchased Carna Biosciences 02-131
In short: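 ADP-Glo, RT throughout. Enz/substrate + ATP, 120 min; ADP-Glo reagent 40 min (ATP depletion); detection reagent 30 min; luminescence read. Neg ctrl 1% DMSO, pos ctrl 10 μM staurosporine, final concs.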

T2 sequence (Q9H0K1 whole entry): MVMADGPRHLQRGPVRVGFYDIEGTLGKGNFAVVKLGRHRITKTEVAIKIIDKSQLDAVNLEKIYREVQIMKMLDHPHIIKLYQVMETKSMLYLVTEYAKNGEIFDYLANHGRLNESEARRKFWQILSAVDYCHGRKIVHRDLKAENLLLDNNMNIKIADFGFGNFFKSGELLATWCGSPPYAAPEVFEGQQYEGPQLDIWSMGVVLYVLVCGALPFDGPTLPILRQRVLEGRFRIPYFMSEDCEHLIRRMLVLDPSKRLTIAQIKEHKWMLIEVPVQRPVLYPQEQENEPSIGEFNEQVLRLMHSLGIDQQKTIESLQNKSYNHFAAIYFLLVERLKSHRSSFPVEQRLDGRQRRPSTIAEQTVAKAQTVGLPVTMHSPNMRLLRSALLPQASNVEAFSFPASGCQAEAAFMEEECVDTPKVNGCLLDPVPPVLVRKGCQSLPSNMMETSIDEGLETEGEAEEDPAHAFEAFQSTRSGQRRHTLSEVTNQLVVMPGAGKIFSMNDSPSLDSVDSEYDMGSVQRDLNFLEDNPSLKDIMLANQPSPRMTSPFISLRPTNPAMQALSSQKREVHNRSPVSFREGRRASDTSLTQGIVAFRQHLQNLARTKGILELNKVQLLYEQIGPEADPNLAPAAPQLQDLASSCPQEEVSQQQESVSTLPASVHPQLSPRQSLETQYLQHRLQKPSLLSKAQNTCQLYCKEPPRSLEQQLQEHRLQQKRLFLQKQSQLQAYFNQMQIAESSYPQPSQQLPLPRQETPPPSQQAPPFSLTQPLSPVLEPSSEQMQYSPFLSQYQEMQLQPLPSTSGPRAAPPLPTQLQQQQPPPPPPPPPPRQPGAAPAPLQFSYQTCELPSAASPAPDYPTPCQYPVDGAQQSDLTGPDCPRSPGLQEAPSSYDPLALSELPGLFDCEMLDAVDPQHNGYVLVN
T1 sequence (Q9Y2K2 whole entry): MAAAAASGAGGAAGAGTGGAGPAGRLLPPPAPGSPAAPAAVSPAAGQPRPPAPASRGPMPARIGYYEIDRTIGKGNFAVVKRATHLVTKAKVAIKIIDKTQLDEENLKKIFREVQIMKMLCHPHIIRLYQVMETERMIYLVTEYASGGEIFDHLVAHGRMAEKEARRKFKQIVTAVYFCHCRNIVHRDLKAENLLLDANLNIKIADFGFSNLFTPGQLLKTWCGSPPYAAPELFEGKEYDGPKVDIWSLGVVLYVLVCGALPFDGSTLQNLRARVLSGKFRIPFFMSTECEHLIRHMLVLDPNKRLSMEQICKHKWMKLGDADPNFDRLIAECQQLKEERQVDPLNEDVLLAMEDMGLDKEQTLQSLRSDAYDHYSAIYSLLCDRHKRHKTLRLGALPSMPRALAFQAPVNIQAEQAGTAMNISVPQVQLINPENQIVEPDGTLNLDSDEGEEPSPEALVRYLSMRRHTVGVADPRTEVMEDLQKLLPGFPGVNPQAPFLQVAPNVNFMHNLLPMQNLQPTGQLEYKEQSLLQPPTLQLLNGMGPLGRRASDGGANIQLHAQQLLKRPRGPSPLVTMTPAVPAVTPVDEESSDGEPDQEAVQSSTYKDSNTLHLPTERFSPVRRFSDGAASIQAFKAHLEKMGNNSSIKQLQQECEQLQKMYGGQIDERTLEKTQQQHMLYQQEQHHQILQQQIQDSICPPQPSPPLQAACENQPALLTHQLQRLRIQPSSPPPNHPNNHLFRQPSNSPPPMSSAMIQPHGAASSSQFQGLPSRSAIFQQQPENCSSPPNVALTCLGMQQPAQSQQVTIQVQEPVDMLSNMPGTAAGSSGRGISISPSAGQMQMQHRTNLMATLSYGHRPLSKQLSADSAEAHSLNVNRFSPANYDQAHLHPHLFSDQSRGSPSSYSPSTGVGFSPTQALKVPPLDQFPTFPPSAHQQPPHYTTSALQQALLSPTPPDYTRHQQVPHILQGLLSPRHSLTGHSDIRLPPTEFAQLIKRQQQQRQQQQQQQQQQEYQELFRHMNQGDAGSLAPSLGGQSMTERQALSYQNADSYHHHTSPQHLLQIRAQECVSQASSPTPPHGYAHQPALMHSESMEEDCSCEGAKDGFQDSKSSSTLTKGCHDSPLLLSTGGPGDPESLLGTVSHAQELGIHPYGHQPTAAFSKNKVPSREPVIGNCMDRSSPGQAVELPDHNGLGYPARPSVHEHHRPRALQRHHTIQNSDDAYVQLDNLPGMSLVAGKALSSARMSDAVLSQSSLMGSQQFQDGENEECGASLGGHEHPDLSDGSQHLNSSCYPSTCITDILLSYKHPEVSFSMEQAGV
T3 sequence (P57059 whole entry): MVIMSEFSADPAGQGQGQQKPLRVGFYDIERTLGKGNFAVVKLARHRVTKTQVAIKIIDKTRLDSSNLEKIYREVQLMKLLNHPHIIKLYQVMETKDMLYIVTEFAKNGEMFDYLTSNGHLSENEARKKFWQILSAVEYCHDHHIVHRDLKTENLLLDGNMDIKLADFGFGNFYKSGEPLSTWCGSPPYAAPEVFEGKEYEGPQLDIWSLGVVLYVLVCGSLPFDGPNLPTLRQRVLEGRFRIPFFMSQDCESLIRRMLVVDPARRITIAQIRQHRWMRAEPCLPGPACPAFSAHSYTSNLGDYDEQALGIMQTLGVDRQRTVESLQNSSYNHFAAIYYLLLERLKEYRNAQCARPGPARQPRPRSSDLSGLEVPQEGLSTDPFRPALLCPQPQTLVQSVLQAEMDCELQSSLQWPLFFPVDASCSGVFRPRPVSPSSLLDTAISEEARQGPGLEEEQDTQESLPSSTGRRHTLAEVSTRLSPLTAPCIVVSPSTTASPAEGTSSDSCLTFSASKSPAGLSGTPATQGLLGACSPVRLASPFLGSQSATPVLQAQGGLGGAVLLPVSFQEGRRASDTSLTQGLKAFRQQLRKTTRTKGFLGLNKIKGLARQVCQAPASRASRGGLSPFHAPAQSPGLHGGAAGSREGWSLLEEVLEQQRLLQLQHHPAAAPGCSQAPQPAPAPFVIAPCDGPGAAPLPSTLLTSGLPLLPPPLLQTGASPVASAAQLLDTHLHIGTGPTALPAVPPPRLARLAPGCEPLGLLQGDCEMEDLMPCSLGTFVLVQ

COc1cc(-c2cnc3cc(OCc4ncccn4)ccn23)cc(OC(F)F)c1C(=O)NC1CC1 [compound 94, N-cyclopropyl-2-(difluoromethoxy)-6-methoxy-4-[7-(pyrimidin-2-ylmethoxy)imidazo[1,2-a]pyridin-3-yl]benzamide]
IC50 [1]: 10 to 100 nM
IC50 [2]: 10 to 100 nM
IC50 [3]: 10 to 100 nM

COc1cc(-c2cnc3cc(OCCN(C)c4ccncc4)ccn23)cc(OC(F)F)c1C(=O)NC1CC1 [compound 223, N-cyclopropyl-2-(difluoromethoxy)-6-methoxy-4-[7-[2-[methyl(4-pyridyl)amino]ethoxy]imidazo[1,2-a]pyridin-3-yl]benzamide]
IC50 [1]: 0.01 to 10 nM
IC50 [2]: 0.01 to 10 nM
IC50 [3]: 0.01 to 10 nM

COc1ccn2c(-c3cc4c(c(OC)c3)C(=O)N(CC(F)(F)F)CC4)cnc2c1 [Cpd 256, 8-methoxy-6-(7-methoxyimidazo[1,2-a]pyridin-3-yl)-2-(2,2,2-trifluoroethyl)-3,4-dihydroisoquinolin-1-one]
IC50 [1]: 10 to 100 nM
IC50 [2]: 10 to 100 nM
IC50 [3]: 100 to 500 nM

COc1cc(-c2cnc3cc(OCC(N)C4CC4)ccn23)cc(OC(F)F)c1C(=O)NC1CC1 (stereo not drawn) [compound 137, 4-[7-(2-amino-2-cyclopropyl-ethoxy)imidazo[1,2-a]pyridin-3-yl]-N-cyclopropyl-2-(difluoromethoxy)-6-methoxy-benzamide]
IC50 [1]: 0.01 to 10 nM
IC50 [2]: 0.01 to 10 nM
IC50 [3]: 10 to 100 nM

COc1cc(-c2cnc3cc(OCCN(C)C)ccn23)cc(F)c1C(=O)NC1CC1 [compound 51, N-cyclopropyl-4-[7-[2-(dimethylamino)ethoxy]imidazo[1,2-a]pyridin-3-yl]-2-fluoro-6-methoxy-benzamide]
IC50 [1]: 10 to 100 nM
IC50 [2]: 10 to 100 nM
IC50 [3]: > 500 nM

COc1cc(-c2cnc3cc(OCCCN4CCC(N(C)S(C)(=O)=O)CC4)ccn23)cc(OC(F)F)c1C(=O)NC1CC1 [compound 326, N-cyclopropyl-2-(difluoromethoxy)-6-methoxy-4-[7-[3-[4-[methyl(methylsulfonyl)amino]-1-piperidyl]propoxy]imidazo[1,2-a]pyridin-3-yl]benzamide]
IC50 [1]: 0.01 to 10 nM
IC50 [2]: 0.01 to 10 nM
IC50 [3]: 10 to 100 nM

COc1cc(-c2cnc3cc(OCc4cncs4)ccn23)cc(OC(F)F)c1C(=O)NC1CC1 [compound 95, N-cyclopropyl-2-(difluoromethoxy)-6-methoxy-4-[7-(thiazol-5-ylmethoxy)imidazo[1,2-a]pyridin-3-yl]benzamide]
IC50 [1]: 0.01 to 10 nM
IC50 [2]: 0.01 to 10 nM
IC50 [3]: 10 to 100 nM

COc1cc(-c2cnc3cc(OCCCN4[C@H](C)CCC[C@@H]4C)ccn23)cc(OC(F)F)c1C(=O)NC1CC1 [compound 352, N-cyclopropyl-2-(difluoromethoxy)-4-[7-[3-[(2R,6S)-2,6-dimethyl-1-piperidyl]propoxy]imidazo [1,2-a]pyridin-3-yl]-6-methoxy-benzamide]
IC50 [1]: 0.01 to 10 nM
IC50 [2]: 0.01 to 10 nM
IC50 [3]: 0.01 to 10 nM

COc1cc(-c2cnc3cc(OCCCN4CCc5ncccc5C4)ccn23)cc(OC(F)F)c1C(=O)NC1CC1 [compound 311, N-cyclopropyl-2-(difluoromethoxy)-4-[7-[3-(7,8-dihydro-5H-1,6-naphthyridin-6-yl)propoxy]imidazo[1,2-a]pyridin-3-yl]-6-methoxy-benzamide]
IC50 [1]: 0.01 to 10 nM
IC50 [2]: 0.01 to 10 nM
IC50 [3]: 10 to 100 nM

COc1cc(-c2cnc3cc(OC[C@H]4CCCN(CCO)C4)ccn23)cc(OC(F)F)c1C(=O)NC1CC1 [Cpd 340, N-cyclopropyl-2-(difluoromethoxy)-4-[7-[[(3S)-1-(2-hydroxyethyl)-3-piperidyl]methoxy]imidazo [1,2-a]pyridin-3-yl]-6-methoxy-benzamide]
IC50 [1]: 0.01 to 10 nM
IC50 [2]: 0.01 to 10 nM
IC50 [3]: 10 to 100 nM

COc1cc(-c2cnc3cc(OCCN4C(C)CCCC4C)ccn23)cc(OC(F)F)c1C(=O)NC1CC1 (stereo not drawn) [compound 294, N-cyclopropyl-2-(difluoromethoxy)-4-[7-[2-(2,6-dimethyl-1-piperidyl)ethoxy]imidazo [1,2-a]pyridin-3-yl]-6-methoxy-benzamide]
IC50 [1]: 0.01 to 10 nM
IC50 [2]: 0.01 to 10 nM
IC50 [3]: 10 to 100 nM

COc1cc(-c2cnc3cc(OC4CCOCC4)ccn23)cc(OC)c1C(=O)NCC(F)(F)F [Cpd 4, 2,6-dimethoxy-4-(7-tetrahydropyran-4-yloxyimidazo[1,2-a]pyridin-3-yl)-N-(2,2,2-trifluoroethyl) benzamide]
IC50 [1]: 10 to 100 nM
IC50 [2]: 100 to 500 nM
IC50 [3]: > 500 nM

COc1cc(-c2cnc3cc(OCC4CC(N)C4)ccn23)cc(OC(F)F)c1C(=O)NC1CC1 (stereo not drawn) [compound 108, 4-[7-[(3-aminocyclobutyl)methoxy]imidazo[1,2-a]pyridin-3-yl]-N-cyclopropyl-2-(difluoromethoxy)-6-methoxy-benzamide]
IC50 [1]: 0.01 to 10 nM
IC50 [2]: 0.01 to 10 nM
IC50 [3]: 0.01 to 10 nM

COc1cc(-c2cnc3cc(OCCN4CCOCC4C)ccn23)cc(OC(F)F)c1C(=O)NC1CC1 (stereo not drawn) [compound 232, N-cyclopropyl-2-(difluoromethoxy)-6-methoxy-4-[7-[2-(3-methylmorpholin-4-yl)ethoxy]imidazo [1,2-a]pyridin-3-yl]benzamide]
IC50 [1]: 0.01 to 10 nM
IC50 [2]: 0.01 to 10 nM
IC50 [3]: 10 to 100 nM

CCC(COc1ccn2c(-c3cc(OC)c(C(=O)NC4CC4)c(OC(F)F)c3)cnc2c1)N(C)C (stereo not drawn) [compound 203]
IC50 [1]: 0.01 to 10 nM
IC50 [2]: 10 to 100 nM
IC50 [3]: 100 to 500 nM

CNC1CC(Oc2ccn3c(-c4cc(OC)c(C(=O)NC5CC5)c(OC(F)F)c4)cnc3c2)C1 (stereo not drawn) [compound 161, N-cyclopropyl-2-(difluoromethoxy)-6-methoxy-4-[7-[3-(methylamino)cyclobutoxy]imidazo[1,2-a]pyridin-3-yl]benzamide]
IC50 [1]: 0.01 to 10 nM
IC50 [2]: 0.01 to 10 nM
IC50 [3]: 10 to 100 nM

COc1cc(-c2cnc3cc(OC4CCC(F)(F)CC4)ccn23)cc(OC(F)F)c1C(=O)NC1CC1 [compound 77, N-cyclopropyl-4-[7-(4,4-difluorocyclohexoxy)imidazo[1,2-a]pyridin-3-yl]-2-(difluoromethoxy)-6-methoxy-benzamide]
IC50 [1]: 0.01 to 10 nM
IC50 [2]: 10 to 100 nM
IC50 [3]: 100 to 500 nM

CCOc1cc(-c2cnc3cc(OCCN(C)C)ccn23)cc2c1C(=O)N(CC(F)(F)F)CC2 [compound 140, 6-[7-[2-(dimethylamino)ethoxy]imidazo[1,2-a]pyridin-3-yl]-8-ethoxy-2-(2,2,2-trifluoroethyl)-3,4-dihydroisoquinolin-1-one]
IC50 [1]: 100 to 500 nM
IC50 [2]: 10 to 100 nM
IC50 [3]: > 500 nM

COc1cc(-c2cnc3cc(OCC(C)(C)C)ccn23)cc(OC(F)F)c1C(=O)NC1CC1 [compound 66, N-cyclopropyl-2-(difluoromethoxy)-4-[7-(2,2-dimethylpropoxy)imidazo [1,2-a]pyridin-3-yl]-6-methoxy-benzamide]
IC50 [1]: 0.01 to 10 nM
IC50 [2]: 0.01 to 10 nM
IC50 [3]: 0.01 to 10 nM

COC(=O)C1CN(CCOc2ccn3c(-c4cc(OC)c(C(=O)NC5CC5)c(OC(F)F)c4)cnc3c2)C1 [compound 393, methyl 1-[2-[3-[4-(cyclopropylcarbamoyl)-3-(difluoromethoxy)-5-methoxy-phenyl]imidazo[1,2-a]pyridin-7-yl]oxyethyl]azetidine-3-carboxylate]
IC50 [1]: 0.01 to 10 nM
IC50 [2]: 0.01 to 10 nM
IC50 [3]: 10 to 100 nM

COc1cc(-c2cnc3cc(OCCO)ccn23)cc2c1C(=O)N(CC(F)(F)F)CC2 [Cpd 258, 6-[7-(2-hydroxyethoxy)imidazo [1,2-a]pyridin-3-yl]-8-methoxy-2-(2,2,2-trifluoroethyl)-3,4-dihydroisoquinolin-1-one]
IC50 [1]: 0.01 to 10 nM
IC50 [2]: 10 to 100 nM
IC50 [3]: 100 to 500 nM

COc1cc(-c2cnc3cc(OCc4ccccn4)ccn23)cc(OC(F)F)c1C(=O)NC1CC1 [compound 105, N-cyclopropyl-2-(difluoromethoxy)-6-methoxy-4-[7-(2-pyridylmethoxy)imidazo [1,2-a]pyridin-3-yl]benzamide]
IC50 [1]: 0.01 to 10 nM
IC50 [2]: 0.01 to 10 nM
IC50 [3]: 10 to 100 nM

COCC(C)(C)Oc1ccn2c(-c3cc(OC)c(C(=O)NC4CC4)c(OC(F)F)c3)cnc2c1 [Cpd 260, N-cyclopropyl-2-(difluoromethoxy)-6-methoxy-4-[7-(2-methoxy-1,1-dimethyl-ethoxy)imidazo[1,2-a]pyridin-3-yl]benzamide]
IC50 [1]: 10 to 100 nM
IC50 [2]: > 500 nM
IC50 [3]: > 500 nM

COc1cc(-c2cnc3cc(OCCN(C)CC#N)ccn23)cc(OC(F)F)c1C(=O)NC1CC1 [compound 215, 4-[7-[2-[cyanomethyl(methyl)amino]ethoxy]imidazo[1,2-a]pyridin-3-yl]-N-cyclopropyl-2-(difluoromethoxy)-6-methoxy-benzamide]
IC50 [1]: 0.01 to 10 nM
IC50 [2]: 0.01 to 10 nM
IC50 [3]: 10 to 100 nM

COc1cc(-c2cnc3cc(OCCN4CCOCC4)ccn23)cc(C)c1C(=O)NC1CC1 [compound 222, N-cyclopropyl-2-methoxy-6-methyl-4-[7-(2-morpholinoethoxy)imidazo[1,2-a]pyridin-3-yl]benzamide]
IC50 [1]: 10 to 100 nM
IC50 [2]: 100 to 500 nM
IC50 [3]: > 500 nM

COc1cc(-c2cnc3cc(OCc4ccn(C)n4)ccn23)cc(OC(F)F)c1C(=O)NC1CC1 [compound 200, N-cyclopropyl-2-(difluoromethoxy)-6-methoxy-4-[7-[(1-methylpyrazol-3-yl)methoxy]imidazo[1,2-a]pyridin-3-yl]benzamide]
IC50 [1]: 0.01 to 10 nM
IC50 [2]: 0.01 to 10 nM
IC50 [3]: 10 to 100 nM

COc1cc(-c2cnc3cc(OCC4CCCCN4C(C)C)ccn23)cc(OC(F)F)c1C(=O)NC1CC1 (stereo not drawn) [compound 148, N-cyclopropyl-2-(difluoromethoxy)-4-[7-[(1-isopropyl-2-piperidyl)methoxy]imidazo [1,2-a]pyridin-3-yl]-6-methoxy-benzamide]
IC50 [1]: 0.01 to 10 nM
IC50 [2]: 0.01 to 10 nM
IC50 [3]: 100 to 500 nM

Source: US12264156B2, “Compounds and pharmaceutical compositions thereof for the treatment of diseases” (GALAPAGOS NV, priority 2018, dated 2025)
